In patent US20150307460A1, “Substituted Triazoles and Imidazoles and Their Use as Fungicides” (BASF SE, priority 2012, published 2015):

Experiments:
[1] = tested on: Puccinia recondita; assay: Green house CG1: preventative control of brown rust on wheat caused by Puccinia recondita (Puccrt P1); format: in vivo; details: 150 ppm spray, wheat seedlings, % diseased leaf area, untreated control 90
Protocol: The spray solutions were prepared in several steps: The stock solution were prepared: a mixture of acetone and/or dimethylsulfoxide and the wetting agent/emulsifier Wettol, which is based on ethoxylated alkylphenoles, in a relation (volume) solvent-emulsifier of 99 to 1 was added to 25 mg of the compound to give a total of 5 ml. Water was then added to total volume of 100 ml. This stock solution was diluted with the described solvent-emulsifier-water mixture to the given concentration. CG1 Preventative Control of Brown Rust on Wheat Caused by Puccinia recondita (Puccrt P1) The first two developed leaves of pot-grown wheat seedling were sprayed to run-off with an aqueous suspension, containing the concentration of active ingredient or their mixture as described below. The next day the plants were inoculated with spores of Puccinia recondita. […] The extent of fungal attack on the leaves was visually assessed as % diseased leaf area.

[2] = tested on: Botrytis cinerea; assay: Microtiterplate test: activity against the grey mold Botrytis cinerea (Botrci), also comparison test CM1; format: cell-based; details: 7 days after inoculation, control = 100%
[3] = tested on: Phytophthora infestans; format: cell-based; details: 7 days after inoculation, control = 100%
[4] = tested on: Septoria tritici; assay: Microtest: activity against leaf blotch on wheat caused by Septoria tritici (Septtr), also comparison test CM3; format: cell-based; details: 7 days after inoculation, control = 100%

## OC1(c2ccc(-c3ccc(F)cc3)cc2)CCCCCC1n1cncn1 (stereo not drawn)
[1]
  CG1 Disease (%) at 150 ppm Puccrt P1: 10%

## OC1(c2ccc(Oc3ccc(Cl)cc3)cc2)CCCCC1n1cncn1 (stereo not drawn) [Compound I-11, 1-[4-(4-chlorophenoxyl)phenyl]-2-(1,2,4-triazol-1-yl)cyclohexanol]
[2]
  CM1 Growth (%) at 8 ppm Botrci: 0%
[3]
  CM2 Growth (%) at 31 ppm Phytin: 57%
[4]
  CM3 Growth (%) at 8 ppm Septtr: 0%

## OC1(c2ccc(-c3ccccc3)cc2)CCCCC1n1cncn1 (stereo not drawn) [Compound I-12]
[2]
  CM1 Growth (%) at 8 ppm Botrci: 0%
[3]
  CM2 Growth (%) at 31 ppm Phytin: 41%
[4]
  CM3 Growth (%) at 8 ppm Septtr: 1%

## OC1(c2ccc(-c3ccc(Cl)cc3)cc2)CCCCC1n1cncn1 (stereo not drawn) [Compound I-15]
[2]
  CM1 Growth (%) at 8 ppm Botrci: 0%
[4]
  CM3 Growth (%) at 8 ppm Septtr: 2%

## OC1(c2cccc(-c3ccc(Cl)cc3)c2)CCCCC1n1cncn1 (stereo not drawn) [Compound I-19]
[2]
  CM1 Growth (%) at 8 ppm Botrci: 0%
[3]
  CM2 Growth (%) at 31 ppm Phytin: 73%
[4]
  CM3 Growth (%) at 8 ppm Septtr: 1%

## OC1(c2ccccc2)CCCCC1n1cncn1 (stereo not drawn) [Example No. 25 of EP 0 152 031, reference compound]
[2]
  CM1 Growth (%) at 8 ppm Botrci: 70%
[3]
  CM2 Growth (%) at 31 ppm Phytin: 94%
[4]
  CM3 Growth (%) at 8 ppm Septtr: 80%

## OC1(c2ccc(F)cc2)CCCCC1n1cncn1 (stereo not drawn) [Example No. 28 of EP 0 152 031, reference compound]
[2]
  CM1 Growth (%) at 8 ppm Botrci: 40%
[3]
  CM2 Growth (%) at 31 ppm Phytin: 93%
[4]
  CM3 Growth (%) at 8 ppm Septtr: 83%

## OC1(c2ccc(Cl)cc2)CCCCCC1n1cncn1 (stereo not drawn) [reference compound]
[1]
  CG1 Disease (%) at 150 ppm Puccrt P1: 30%

## OC1(c2ccc(Cl)cc2)CCCCC1n1cncn1 (stereo not drawn) [reference compound]
[3]
  CM2 Growth (%) at 31 ppm Phytin: 78%
[4]
  CM3 Growth (%) at 8 ppm Septtr: 52%
